According to patent US20240208950A1, “COMPOSITIONS AND METHODS FOR TREATMENT OF CERVICAL AND OVARIAN CANCER” (SOUTH DAKOTA BOARD OF REGENTS, priority 2021, published 2024):

How the values were obtained:
SiHa cells [1] = assay: Colony formation assay, SiHa; assay type: cell-based, human; conditions: SiHa, 2.5, 5 and 7.5 μM
Method: (§1) FIGS. 5A and 5B show representative colony images of CaSki cells (FIG. 5A) and SiHa cells (FIG. 5B) treated with various concentrations of ORM-Br ranging from […]. FIGS. 5C and 5D represent the quantification of colony formation in CaSki cells (FIG. 5C) and SiHa cells (FIG. 5D) treated with various concentrations of ORM-Br ranging from 0 to 7.5 μM.
(§2) To determine the effect of Br-ORM on clonogenic potential of CaSki and SiHa cells, a colony formation assay was performed. In brief, 500 cells were seeded per well in a 6-well plate and allowed to stand for the next three days. The cells were treated with Br-ORM with different concentrations (2.5, 5, and 7.5 μM) for seven days and then followed by normal growth media. […] Colonies were fixed in methanol, stained with haematoxylin, and counted using UVP 810 software.
(§3) FIG. 13. […] Cell viability was assessed by MTS assay. […] Bar graphs indicating quantification of colony formation in CaSki (i), and SiHa (ii) cells of cervical cancer with respect to vehicle control. […] Briefly, cervical cancer cells were treated with Br-ORM (10 μM) for 24 hours and the apoptosis inducing effect of Br-ORM was analyzed by Annexin V staining. […] The equal loading of protein in each lane was determined by probing the blots with β-actin antibody (FIG. 13F). […] Br-ORM arrests cell cycle in G1/S phase as determined by flow cytometry. […]

β-catenin in SiHa cells = assay: β-catenin degradation with cyclohexamide (western blot, pulse chase), SiHa; assay type: cell-based, human; conditions: with cyclohexamide (CHX: 50 mg), ORM-Br
Method: A western blot analysis was conducted to determine the effect of ORM-Br on β-catenin degradation. […] Protein lysates were prepared and subjected to western blot analysis to ascertain the levels of protein of β-catenin in cyclohexamide-treated cells (FIG. 3A) and in ORM-Br and cyclohexamide-treated cells (FIG. 3B).

CaSki cells [2] = assay: Colony formation assay, CaSki; assay type: cell-based, human; conditions: CaSki, 2.5, 5 and 7.5 μM
Method: as §1, §2, §3

SiHa cells [3] = assay: Cell invasion assay (Boyden chamber and xCELLigence), SiHa; assay type: cell-based, human
Text: FIGS. 8A and 8B show the effect of ORM-Br on invasion of CaSki (FIG. 8A) and SiHa (FIG. 8B) cell lines in Boyden chamber and xCELLigence assay. The images represent the invaded cells of control and ORM-Br-treated CaSki and SiHa cells as determined by Boyden Chamber kit. The magnification was at 20 for the images of FIGS. 8A and 8B.

[4] = tested on: CaSki cells derived xenograft tumors; assay: Orthotopic xenograft mouse model of cervical cancer; assay type: in vivo, female athymic nude mice; conditions: 250 μg/mice intra-tumoral
[5] = tested on: HPV16 E6 and E7 transcripts in SiHa cells; assay: qPCR of HPV E6 and HPV E7 transcripts, SiHa; assay type: cell-based, human; conditions: 18 hours
SiHa cells [6] = assay: Cell cycle analysis by flow cytometry, SiHa; assay type: cell-based, human; conditions: 10 and 15 μM
Method: (§4) The effect of Br-ORM on cell cycle analysis was performed by flow cytometry as has described in the art. In brief, approximately 70% confluent cervical cancer cells were treated with Br-ORM (10 and 20 μM) for 24 hours. The cells were trypsinized and washed twice with ice-cold PBS (1×). The cell pellets were resuspended in 50 μL of ice cold PBS (1×) and 450 μL of cold methanol. The cells were washed twice with ice cold PBS (1×), suspended in 500 μL PBS, and incubated with 500 μL RNase (20 μg/mL final concentration) at 37° C. for 1 hour. The cells were chilled over ice for 10 minutes and stained with propidium iodide (50 μg/mL final concentration) for 1 hour and analyzed by flow cytometry (BD Accuri C6; Becton Dickinson, Mountain View, CA, USA). Data was analyzed by using Modfit software.
(§5) To examine the effect on cell cycle distribution, cervical cancer cells were treated with Br-ORM (10 and 15 μM) and analyzed by flow cytometry (FIG. 13F(i)-(ii)).

CaSki cells [7] = assay: Apoptosis analysis by Annexin V staining, CaSki; assay type: cell-based, human; conditions: 10 μM, 24 hours
Method: The apoptosis inducing effect of Br-ORM on cervical cells was analyzed by Annexin V-FLUOS staining kit (Roche Diagnostic Corp. Indianapolis, IN, USA). The procedure was followed as described in the vendor's protocol. Briefly, 60% confluent cervical cancer cells (CaSki and SiHa) were treated with Br-ORM (10, 15, and 20 μM) and kept in a CO2 incubator at 37° C. for 24 hours. Control group cells were treated with DMSO as the vehicle. Cells were washed with PBS (1×) and kept in Annexin-V solution for 20 minutes. Images were captured in bright and green field by fluorescent microscope.
It was observed that Br-ORM exerts potent growth inhibitory effects, so the effect of Br-ORM on apoptosis induction was further examined. Cervical cancer cells were treated with Br-ORM (10 μM) for 24 hours and the apoptosis inducing effect of Br-ORM was analyzed by Annexin V staining and Western blot analysis for cleavage in PARP protein.

CaSki cells [8] = assay: Cell cycle analysis by flow cytometry, CaSki; assay type: cell-based, human; conditions: 10 and 15 μM
Method: as §4, §5

[9] = three times per week, vs control

Compound: COc1ccc2c(c1)OC(C)(C)C(c1ccc(Br)cc1)C2c1ccc(OCCN2CCCC2)cc1 (stereo not drawn) [ORM-Br]
- colony formation (clonogenic potential) (SiHa cells [1]): suppresses the clonogenic potential
- colony formation (clonogenic potential) (SiHa cells [1]; listed as Br-ORM): significantly decreased the number of colonies
- protein levels of β-catenin relative to cyclohexamide treatment (β-catenin in SiHa cells): significant decrease in protein levels of β-catenin
- colony formation (clonogenic potential) (CaSki cells [2]): suppresses the clonogenic potential
- colony formation (clonogenic potential) (CaSki cells [2]; listed as Br-ORM): significantly decreased the number of colonies
- cell invasion (SiHa cells [3]): inhibits the invasion
- tumor volume [4, 9]: significantly (p<0.05) reduced
- tumor weight [4, 9]: significantly (p<0.05) reduced
- expression of E-cadherin in xenograft tumors (IHC) ([4]; excised tumors): increase in the expression of E-cadherin
- expression of miR-200a in excised xenograft tumors (in situ hybridization) ([4]; excised tumors): Increased expression of miR-200a
- expression of β-catenin, vimentin, snail, slug, HPV-E6, HPV-E7, and PCNA in xenograft tumors (IHC) ([4]; excised tumors): significant downregulation
- HPV16 E6 and E7 transcripts [5]: significant downregulation
- cell cycle distribution (SiHa cells [6]): arrested cell cycle progression of CaSki and SiHa cells at G1/S phase
- apoptosis induction (Annexin V staining) (CaSki cells [7]): induced apoptosis
- cell cycle distribution (CaSki cells [8]): arrested cell cycle progression of CaSki and SiHa cells at G1/S phase
